Reference: the NIST ThermoML archive (doi:10.1021/je200508x)
± gives the expanded uncertainty stated by the source.

Assay: molar heat capacity at constant pressure
Conditions: 101.33 kPa, Crystal, Vacuum adiabatic calorimetry

C=C(C)C(=O)[O][Sb]([O]C(=O)C(=C)C)([c]1ccccc1)([c]1ccccc1)[c]1ccccc1 [triphenyl-.lambda.5-stibanediyl bis(2-methylacrylate)]
Conditions | molar heat capacity at constant pressure [J/K/mol]
5 K | 2.01 ± 0.05
5.69 K | 2.9 ± 0.12
6.38 K | 4.02 ± 0.17
7.1 K | 5.41 ± 0.22
7.71 K | 6.68 ± 0.27
8.27 K | 7.96 ± 0.33
8.8 K | 9.25 ± 0.38
9.02 K | 9.78 ± 0.4
9.38 K | 10.7 ± 0.4
9.91 K | 12 ± 0.5
10 K | 12.3 ± 0.1
10.45 K | 13.4 ± 0.5
10.84 K | 14.3 ± 0.6
11.3 K | 15.5 ± 0.6
11.73 K | 16.5 ± 0.7
12.1 K | 17.4 ± 0.7
13.05 K | 19.9 ± 0.8
13.67 K | 21.6 ± 0.9
14.66 K | 24.5 ± 1
15 K | 25.4 ± 0.2
15.64 K | 27.4 ± 0.31
16.62 K | 30.16 ± 0.34
17.59 K | 33.15 ± 0.37
18.52 K | 36.15 ± 0.4
19.07 K | 37.69 ± 0.41
19.58 K | 39.2 ± 0.43
20 K | 40.48 ± 0.24
21.68 K | 45.73 ± 0.49
24.61 K | 55.52 ± 0.59
25 K | 56.85 ± 0.27
26.89 K | 62.82 ± 0.66
28.78 K | 68.55 ± 0.71
30 K | 72.23 ± 0.19
31.21 K | 75.9 ± 0.77
31.81 K | 78.04 ± 0.8
33.66 K | 83.66 ± 0.85
33.76 K | 84.46 ± 0.86
35 K | 88.24 ± 0.23
36.21 K | 92.11 ± 0.94
38.67 K | 99.54 ± 1
40 K | 103.4 ± 0.3
41.14 K | 106.6 ± 0.5
43.6 K | 113.8 ± 0.5
45 K | 117.5 ± 0.3
46.06 K | 120.5 ± 0.5
48.52 K | 127.2 ± 0.6
50 K | 131.7 ± 0.3
50.62 K | 133.3 ± 0.6
52.35 K | 138.3 ± 0.6
56.62 K | 149.3 ± 0.6
57.11 K | 150.1 ± 0.6
59.23 K | 155.6 ± 0.7
60 K | 157.4 ± 0.4
61.69 K | 161.4 ± 0.7
64.15 K | 167.4 ± 0.7
66.61 K | 173.5 ± 0.7
68.65 K | 178.9 ± 0.8
70 K | 181.9 ± 0.4
70.8 K | 183.9 ± 0.8
73.27 K | 189.7 ± 0.8
75.28 K | 193.9 ± 0.8
77.44 K | 199 ± 0.9
79.9 K | 204.6 ± 0.9
80 K | 204.8 ± 0.5
82.19 K | 210 ± 0.9
84.03 K | 214.2 ± 0.9
84.36 K | 214.5 ± 0.9
86.03 K | 217.9 ± 0.9
86.44 K | 219.2 ± 0.9
88.12 K | 222.6 ± 1
88.53 K | 223.9 ± 1
90 K | 226.3 ± 0.4
90.24 K | 227.1 ± 1
90.62 K | 227.4 ± 1
92.99 K | 232 ± 1
95.37 K | 236.4 ± 1
97.74 K | 240.6 ± 1
100 K | 245.1 ± 0.5
100.11 K | 245.2 ± 1
102.48 K | 250 ± 1.1
104.85 K | 254 ± 1.1
107.22 K | 258.4 ± 1.1
109.45 K | 262.8 ± 1.1
110 K | 263.4 ± 0.5
111.82 K | 266.7 ± 1.1
114.3 K | 271.1 ± 1.1
116.58 K | 275.1 ± 1.2
118.96 K | 279 ± 1.2
120 K | 280.8 ± 0.5
121.34 K | 283 ± 1.2
123.72 K | 286.8 ± 1.2
126.1 K | 290.5 ± 1.2
128.48 K | 294.9 ± 1.2
